# Measurements from US5098933A, “Pharmaceutically useful Michael addition products of unsaturated aldehydes and ketones and ascorbic acid” (Theracel Corporation, priority 1990, dated 1992).
# Legend:
# [1] = tested on: interleukin-2; experiment: Immunomodulation panel: In vitro production of interleukin-2 (CTLL2 bioassay); assay type: in vivo, C57BL/6J mice
# Source text: The bioassay uses the IL-2 growth-dependent cell line, CTLL2 as the indicator cell line to quantitate IL-2 in a biological fluid. The assay utilizes tritiated thymidine uptake by these cells as a measure of cellular proliferation. A reference standard obtained from the NCI Biological Response Modifiers Program is employed to construct a standard curve and to calculate Half Maximal Units (HMU) activity per ml. The assay was modified from one reported by Gillis et al. (J. Immunol. 120: 2927, 1978) and was recently reviewed as a clinical bioassay (Shalaby and Pallidino, In: Manual of Clinical Laboratory Immunology, 3rd Ed., p 300, American Society for Microbiology, Washington, D.C.).
# 2. Each sample is assayed in triplicate, over dilutions of 1/2, 1/4, 1/8, and 1/16 in a 96 well flat bottom plate. A totoal of eight (8) samples may be assayed in a single 96 well plate.
# Analysis: Values are obtained from counter as counts per minute (cpm). The average of each triplicate sample dilution count is calculated. A standard curve of known half maximal units of the IL-2 standard dilution/cpm is constructed using a PC program for generation of the least squares line of best fit. IL-2 values are thus assessed for each sample based upon the standard curve and reported.
# Daily intraperitoneal injections of KCPBL were administered to normal animals and immunological responsiveness to mitogens and specific antigen evaluated.
# Doses and schedule--Doses were selected to bracket the range generally known to be immunostimulatory in past experiments, 1, 10, and […] daily for four days.
# As an assessment of immunopathology in the above screening test panel, the cellularity of the spleen was evaluated by determination of the total number of splenocytes harvested. Humoral-mediated immunity was measured by enumerating IgM plaque-forming cells to the T-dependent antigen sheep erythrocytes. Cell-mediated immunity was evaluated as described above by determination of the ability of the splenocytes to produce the lymphokine interleukin-2 in response to stimulation by the mitogen concanavalin-A. Another measurement of cell-mediated immunity was the responsiveness of the splenic lymphocytes to the mitogens concanavalin-A (Con-A); phytohemagglutinin (PHA) and pokeweed mitogen (PWM) in the lymphocyte blastogenesis assay. In the latter test, the activation and proliferation of the lymphocytes to the mitogens represents the capability of the cells to sequentially pass from G0 to G1 and the S phse of the cell cycle. The responsiveness of the cells was measured by the uptake of radiolabeled 14C-thymidine.
# [2] = tested on: IL-2; experiment: Immunotoxicity--Multi-dose: IL-2 induction; assay type: in vivo, mice
# Protocol: The study incorporated five treatment groups into its design: group 1, sham intravenous control; group 2, 100 mg/kg/day perorally; group 3, 1000 mg/kg/day intravenously; group 4, […], and, group 5, 100 mg/kg/day intravenously. Mice were administered KCPBL daily for a total of fourteen days via the oral (0.2 ml of a 147.5 mg/ml solution or a 29.5 mg/ml solution by gavage) and intravenous route (0.2 ml of 147.5 mg/ml solution or a 29.5 mg/ml solution by tail vein) to achieve a dose of 100 or 1000 mg/kg, respectively. The test dose was prepared fresh daily and dissolved in sterile non-pyrogenic saline. On the fifteenth day the mice were weighed, sacrificed, and the spleens, lungs, livers, kidneys and thymuses removed. These organs were weighed and, except for the spleens, the formalin-fixed organs were analyzed by a veterinary pathologist. Only two randomly-selected sets of animal organs per treatment group were histopathologically evaluated since the remaining three animals were used to isolate splenic lymphocytes for use in cellular immunoassays.
# A leukocyte differential was obtained on peripheral blood samples and spleen cell counts (performed with Coulter Counter), and an IL-2 induction assessment as well as standard lymphocyte stimulation assays using PHA, CON-A and PWM conducted.
# The individual spleens of three mice from control and test groups were processed to isolate lymphocytes and the protocols for lymphocyte blastogenesis, IL-2 induction and assay were performed. The remaining two mice in each group were sacrificed and their lungs, liver, kidney, and spleen were fixed in formalin and sent to AnMed Biosafe for histopathologic examination.
# [3] = Tissue biodistribution of 3H-KCPBL in mice; assay type: in vivo; conditions: for Biodistribution, Bone / Biodistribution, Brain / Biodistribution, Heart / Biodistribution, Kidney / Biodistribution, Large Intestine / Biodistribution, Liver / Biodistribution, Lung / Biodistribution, Muscle / Biodistribution, Small Intestine / Biodistribution, Spleen / Biodistribution, Stomach: 100 mg/kg
# Protocol: The objectives of these tests were to evaluate the pharmacokinetics of radiolabeled KCPBL when administered either perorally or intravenously to mice.
# 3H-KCPBL was prepared from the pure drug substance KCPBL by an exchange procedure using high specific activity tritiated water. The product was purified by reverse phase high performance liquid chromatography and then freeze-dried. Analysis was carried out on ^3 H-KCPBL reconstituted in water. Specific activity was not less than 185 GBg/mmol or 5 Ci/mmol and the molecular weight of the product is 258. HPLC analysis for purity was performed using a Zorbax C8 column (25 cm×4.6) eluting with water: acetonitrile (930:70).
# In the mouse studies, 3H-KCPBL was dissolved in sterile pyrogen-free saline containing […] of non-radiolabeled KCPBL. The final concentration of the test article in an injection volume of 0.1 ml was 66.6 mcCi. One tenth ml was administered intravenously for plasma level and tissue biodistribution studies. Peroral dosages were prepared in a manner consistent with this approach.
# Tissue samples were collected and assayed as described above. The tissues evaluated for KCPBL content at four and at 24 hours after test article administration were: heart, lung, kidney, liver spleen, muscle, bond, stomach, small intestine, large intestine and brain.
smiles,measurement,setting,value
O=C1CCC(C2(O)C(=O)OC3C(O)COC32O)C1 (stereo not drawn) [KCPBL],IL-2 Half Maximal Units,[1]; 1.0 mg/kg i.p.,4.48 ± 1.5 Half Maximal Units [10^6 Cells
same,IL-2 Half Maximal Units,[1]; 10 mg/kg i.p.,4.33 ± 1.4 Half Maximal Units [10^6 Cells
same,IL-2 Half Maximal Units,[1]; 100 mg/kg i.p.,4.14 ± 1.3 Half Maximal Units [10^6 Cells
same,IL-2 production vs controls,[1]; drug-treated animals,produced significantly more IL-2 than controls
same,IL-2,[2]; 100 mg/kg IV (group 5),41.15 HMU/MI
same,IL-2,[2]; 100 mg/kg P.O. (group 4),44.81 ± 20.8 HMU/MI
same,IL-2,[2]; 1000 mg/kg IV (group 3),18.12 ± 10.50 HMU/MI
same,IL-2,[2]; 1000 mg/kg P.O. (group 2),21.11 ± 13.69 HMU/MI
same,IL-2 production,[2]; treated vs sham-injected controls,comparable
same,tissues with highest drug levels,"[3]; 4 h, intravenous","liver, gastrointestinal tract, and brain"
same,tissues with highest drug levels,"[3]; 4 h, peroral",principally found in the kidneys and the gastrointestinal tract
same,tissues with highest drug levels,"[3]; 24 h, intravenous",muscle and brain demonstrated the highest levels
same,tissues with highest drug levels,"[3]; 24 h, peroral",the highest drug levels were found in muscle and brain
same,"Biodistribution, Bone","[3]; intravenous, 4 hour",12.77 ± 3.96 mcg/gm
same,"Biodistribution, Brain","[3]; intravenous, 4 hour",38.60 ± 16.90 mcg/gm
same,"Biodistribution, Heart","[3]; intravenous, 4 hour",10.45 ± 3.50 mcg/gm
same,"Biodistribution, Kidney","[3]; intravenous, 4 hour",11.72 ± 1.34 mcg/gm
same,"Biodistribution, Large Intestine","[3]; intravenous, 4 hour",65.57 ± 14.86 mcg/gm
same,"Biodistribution, Liver","[3]; intravenous, 4 hour",21.20 ± 4.78 mcg/gm
same,"Biodistribution, Lung","[3]; intravenous, 4 hour",2.60 ± 2.20 mcg/gm
same,"Biodistribution, Muscle","[3]; intravenous, 4 hour",31.97 ± 6.09 mcg/gm
same,"Biodistribution, Small Intestine","[3]; intravenous, 4 hour",58.50 ± 18.68 mcg/gm
same,"Biodistribution, Spleen","[3]; intravenous, 4 hour",0.95 ± 0.36 mcg/gm
same,"Biodistribution, Stomach","[3]; intravenous, 4 hour",23.79 ± 5.96 mcg/gm
same,"Biodistribution, Bone","[3]; intravenous, 24 hour",4.53 ± 0.86 mcg/gm
same,"Biodistribution, Brain","[3]; intravenous, 24 hour",34.80 ± 20.5 mcg/gm
same,"Biodistribution, Heart","[3]; intravenous, 24 hour",2.85 ± 1.23 mcg/gm
same,"Biodistribution, Kidney","[3]; intravenous, 24 hour",5.35 ± 3.66 mcg/gm
same,"Biodistribution, Large Intestine","[3]; intravenous, 24 hour",13.67 ± 9.3 mcg/gm
same,"Biodistribution, Lung","[3]; intravenous, 24 hour",1.32 ± 0.46 mcg/gm
same,"Biodistribution, Muscle","[3]; intravenous, 24 hour",120.90 ± 154.0 mcg/gm
same,"Biodistribution, Small Intestine","[3]; intravenous, 24 hour",9.62 ± 6.4 mcg/gm
same,"Biodistribution, Spleen","[3]; intravenous, 24 hour",0.71 ± 0.23 mcg/gm
same,"Biodistribution, Stomach","[3]; intravenous, 24 hour",10.36 ± 5.8 mcg/gm
same,"Biodistribution, Liver","[3]; intravenous, 24 hour, SD: data not available",25.7 mcg/gm
same,"Biodistribution, Bone","[3]; peroral, 4 hour",15.02 ± 13.6 mcg/gm
same,"Biodistribution, Brain","[3]; peroral, 4 hour",35.22 ± 1.64 mcg/gm
same,"Biodistribution, Heart","[3]; peroral, 4 hour",13.64 ± 4.98 mcg/gm
same,"Biodistribution, Kidney","[3]; peroral, 4 hour",63.57 ± 74.0 mcg/gm
same,"Biodistribution, Large Intestine","[3]; peroral, 4 hour",135.9 ± 32.5 mcg/gm
same,"Biodistribution, Liver","[3]; peroral, 4 hour",38.03 ± 5.0 mcg/gm
same,"Biodistribution, Lung","[3]; peroral, 4 hour",2.72 ± 0.38 mcg/gm
same,"Biodistribution, Muscle","[3]; peroral, 4 hour",40.81 ± 3.37 mcg/gm
same,"Biodistribution, Small Intestine","[3]; peroral, 4 hour",217.50 ± 267.6 mcg/gm
same,"Biodistribution, Spleen","[3]; peroral, 4 hour",1.73 ± 0.29 mcg/gm
same,"Biodistribution, Stomach","[3]; peroral, 4 hour",110.00 ± 118.0 mcg/gm
same,"Biodistribution, Bone","[3]; peroral, 24 hour",10.30 ± 4.72 mcg/gm
same,"Biodistribution, Brain","[3]; peroral, 24 hour",47.30 ± 33.0 mcg/gm
same,"Biodistribution, Heart","[3]; peroral, 24 hour",5.13 ± 3.37 mcg/gm
same,"Biodistribution, Kidney","[3]; peroral, 24 hour",10.28 ± 5.58 mcg/gm
same,"Biodistribution, Large Intestine","[3]; peroral, 24 hour",21.42 ± 4.39 mcg/gm
same,"Biodistribution, Liver","[3]; peroral, 24 hour",11.84 ± 9.58 mcg/gm
same,"Biodistribution, Lung","[3]; peroral, 24 hour",3.73 ± 3.49 mcg/gm
same,"Biodistribution, Muscle","[3]; peroral, 24 hour",188.5 ± 124.0 mcg/gm
same,"Biodistribution, Small Intestine","[3]; peroral, 24 hour",24.45 ± 5.3 mcg/gm
same,"Biodistribution, Spleen","[3]; peroral, 24 hour",1.71 ± 0.16 mcg/gm
same,"Biodistribution, Stomach","[3]; peroral, 24 hour",25.72 ± 15.0 mcg/gm
